Experimental data from patent publication US12063929B2, “3′-alkynyl abscisic acid derivatives as ABA antagonists” (University of Saskatchewan, priority 2018, dated 2024).

Columns and labels:
[1] = test system: RIL from L. culinaris var Redberry x L. culinaris ssp. orientalis IG72595; assay: Lentil RIL germination, emergence and time to flowering (F5-F7, F7 experiment); format: in vivo
Source text: • DSTG=Days from seeding to germination • DSTE=Days from seeding to Emergence • DSTF=Days from seeding to flowering • DSTH=Days from seeding to harvesting of first seed (F7 was not included because the purpose of this generation was to harvest as many seeds as possible) • GA3=gibberellic acid • DMSO=solvent required for dissolving 1019-ABA F7 Experiment
Objective: Testing the effect of soaking seeds of the F7 generation in four solutions listed below.
Treatments: water, DMSO, 1019-ABA, and 1019-ABA for 1 day followed by 100 μM GA3
Plant material: Seeds derived from a cross between L. culinaris var Redberry and L. culinaris ssp. orientalis IG72595
Experimental set up: 207 RIL-lines in total; 4 seeds (repetitions) per line; 4 treatments
Data collection: Days from seeding to germination (DSTG), days from seeding to emergence (DSTE), and Days from seeding to first flower were counted. Days from seeding to first harvest was not determined because we needed as many seeds as possible in this generation.
Days to germination (DSTG), emergence (DSTE), time to flowering (DSTF) and first harvest (DSTH) were determined during the development of a recombinant inbred line (RIL) developed from a cross between L. culinaris var Redberry and L. culinaris ssp. orientalis IG72595. The aim of the project was to find and incorporate Aphanomyces root rot resistance into the cultivated lentil, and the L. orientalis accession was identified with improved resistance. During the development of this RIL line speed breeding techniques were applied i.e. warmer temperatures, longer day length, higher light intensity, restricted pot volume etc. In generation F5, the exemplary compound became available and was tested on germination and emergence. […] The F7 generation was set up as a proper experiment with four treatments i.e. 1019, water, DMSO (solvent needed for dissolving exemplary compound 1019), and exemplary compound 1019 for one day followed by 100 μM GA3 (FIG. 12).

[2] = test system: ABA-inducible promoter of the MKKK18 gene (GUS reporter); assay: ABA-inducible gene expression, MKKK18GUS reporter plants; format: in vivo, Arabidopsis; parameters: antagonist effect, GUS staining: dose or concentration left out as unconfirmed
Procedure: Transgenic MKKK18GUS Arabidopsis plants harbor an […] (GUS) reporter gene fused to an ABA-inducible promoter of the MKKK18 gene (Okamoto et al. 2013). Six-day-old MKKK18GUS plants were treated with ABA1019 alone or both ABA1019 and ABA for 6 hours. Plants were then stained with 5-bromo-4-chloro-3-indolyl-beta-D-glucuronic acid cyclohexyl ammonium salt (X-Glc) for 14 hours, and destained with 70% ethanol.

Lentil (CDC Maxim) = Lentil (CDC Maxim) seed germination assay; format: in vivo
Procedure: 40 seeds were counted for each 100×15 mm petri dishes. Each petri dish contained two filter papers and 10 mL of test solutions. Then, they were wrapped with aluminium foil to cut off light. Wrapped plates were kept on lab bench at room temperature. Germinated seeds were counted everyday until one treatment reaches 100% germination (two days). Only light exposure was during plate counting. […]
All seeds from this experiment have been rinsed first with tap water and then with dH2O, frozen in liquid nitrogen and stored at −80° C. freezer.

[3] = F7 experiment, 207 lines (Table 2)
[4] = generation F7, 819 seeded (Table 1)

SMILES: CC1=C(C#Cc2ccccc2)C(=O)CC(C)(C)[C@@]1(O)/C=C/C(C)=C\C(=O)O [Compound 1019, (2Z,4E)-5-((S)-1-Hydroxy-2,6,6-trimethyl-4-oxo-3-(phenylethynyl)cyclohex-2-en-1-yl)-3-methylpenta-2,4-dienoic acid]
- emergence rate ([1]; F7 experiment): 100%
- % Germ. [1, 3]: 99%
- Germ. (number of seeds germinated) [1, 3]: 807
- % Germ. ([1]; F7 experiment, 207 lines (Table 2), listed as 1019-ABA): 98.9%
- seeds emerged ([1]; F7 experiment, four days after seeding (FIG. 12B)): 81%
- days earlier flowering than water treatment ([1]; F7 experiment, on average): 4 days
- DSTE (days from seeding to emergence) ([1]; generation CVF6): 4.03 days
- DSTF (days from seeding to flowering) ([1]; generation CVF6): 26.14 days
- DSTG (days from seeding to germination) ([1]; generation CVF6): 1.12 days
- DSTH (days from seeding to harvesting of first seed) ([1]; generation CVF6): 44.02 days
- Emerged (number of seeds emerged) ([1]; generation CVF6, 226 seeded): 226
- Germ. (number of seeds germinated) ([1]; generation CVF6, 226 seeded): 226
- DSTE (days from seeding to emergence) ([1]; generation F5): 4.93 days
- DSTF (days from seeding to flowering) ([1]; generation F5): 28.22 days
- DSTG (days from seeding to germination) ([1]; generation F5): 2.18 days
- DSTH (days from seeding to harvesting of first seed) ([1]; generation F5): 45.41 days
- Emerged (number of seeds emerged) ([1]; generation F5, 231 seeded): 225
- Germ. (number of seeds germinated) ([1]; generation F5, 231 seeded): 230
- Emerged (number of seeds emerged) [1, 4]: 791
- Germ. (number of seeds germinated) [1, 4]: 816
- agonist activity, GUS staining ([2]; 2.5 μM applied alone, 6 hours): weak agonist activity
- GUS staining compared to ABA alone ([2]; 1:1 ratio with ABA): a reduction in the GUS staining
- antagonist effect, GUS staining ([2]; co-applied with ABA, dose dependent): potent antagonist effect
- GUS staining compared to ABA alone ([2]; ratio of compound to ABA 10:1): abolition of the ABA GUS stain
- lentil seed germination, antagonism of ABA (Lentil (CDC Maxim); 10 μM ABA plus 10 μM compound (FIG. 6C)): strongest antagonist
- lentil seed germination (Lentil (CDC Maxim); 10 μM compound and 10 μM compound plus 10 μM ABA (FIG. 5)): promoted
- lentil seed germination (Lentil (CDC Maxim); 100 μM compound plus 10 μM ABA (FIG. 6B)): overcame the effect
